Reference: patent US11259522B2, “Control of resistant pests” (priority 2017, dated 2022)
Values after ≈ are worked out from the molar mass of the structure shown. Where two headings read alike, the source gives them in different places.

Assays:
[1] = tested on: M. persicae (green peach aphid) insecticide-susceptible population; test: Leaf dip bioassay, green peach aphid, susceptible population; assay type: in vivo, Myzus persicae; details: Susceptible population, 96 hours exposure
Protocol: (§1) Each colony was maintained separately on bok choi plants ([…]) within an exclusion cage in a constant temperature room at 24° C. with a photoperiod of 16:8 LD.
(§2) Laboratory bioassays were used to determine the efficacy of flavesone against M. persicae following the leaf dip method described in Moores et al. (1994, Pesticide Biochemistry and Physiology, 49, 114-120). A pilot study was first conducted which confirmed that the leaf dip method was appropriate to elicit a clear dose response for Flavocide 500EW against M. persicae, and to determine the appropriate rate range and timing of mortality assessments (scored at 24, 48, 72 & 96 hours) (data not shown).
(§3) Bioassays were then conducted to assess the efficacy of flavesone against a susceptible and resistant population of M. persicae, and to calculate LC values. The efficacy of a conventional insecticide, pirimicarb, was tested for comparison. Nine concentrations of flavesone ranging from 1×10^−3 to 10 times the proposed field rate (Table 15), and six concentrations of pirimicarb were serially diluted and tested, along with a water control, against the susceptible and resistant aphid populations. Leaf discs (25 mm diameter) cut from bok choi leaves were submerged for 1 second in the insecticide solutions, or in the water control, and placed adaxial side up on 10 g/L agar in 35 mm petri dishes. Six replicate leaf discs were prepared per treatment. Once leaves were air-dry, eight M. persicae nymphs were transferred to each insecticide-dipped leaf disc using a fine-haired paintbrush.
(§4) After aphid introduction, each petri dish was inverted onto a lid containing a 25 mm diameter filter paper to control humidity. All petri dishes were then placed into an incubator held at 18° C.±2° C. with a photoperiod of 16:8 LD cycle. At 48 & 96 hours, aphids were scored as alive (vibrant and moving freely), dead (not moving over a 5 second period), or incapacitated (inhibited movement).
(§5) Dose-response curves were generated by plotting percentage mortality against log concentration. Mortality data was analysed using a logistic regression model with random effects. Logistic regression is suited for the analysis of binary response data (i.e. dead/alive) with the random effect component of the model controlling for the non-independence of mortality scores within replicates. […] Population differences were tested by comparing the change in model deviance with and without the population factor (different regression intercepts for each population). Differences in regression slopes between populations were tested by comparing the change in model deviance with and without the population×dose interaction term.

[2] = tested on: M. persicae (green peach aphid) population resistant to carbamates and synthetic pyrethroids; test: Leaf dip bioassay, green peach aphid, resistant population; assay type: in vivo, Myzus persicae; details: 96 hours exposure; for LC50: Myzus persicae, foliar
Protocol: as §1, §2, §3, §4, §5

[3] = tested on: Tribolium castaneum susceptible strain QTC4; test: Grain protectant bioassay on treated wheat, T. castaneum susceptible; assay type: in vivo; details: for Progeny reduction (%): vs untreated control
[4] = tested on: Tribolium castaneum strain QTC279 (resistant to malathion and bioresmethrin); test: Grain protectant bioassay on treated wheat, T. castaneum resistant; assay type: in vivo; details: for Progeny reduction (%): vs untreated control
[5] = tested on: Cryptolestes ferrugineus susceptible strain QCF31; test: Grain protectant bioassay on treated wheat, C. ferrugineus susceptible; assay type: in vivo; details: for Progeny reduction (%): vs untreated control
[6] = tested on: Cryptolestes ferrugineus strain QCF73 (resistant to phosphine); test: Grain protectant bioassay on treated wheat, C. ferrugineus resistant; assay type: in vivo; details: for Progeny reduction (%): vs untreated control
[7] = tested on: Oryzaephilus surinamensis susceptible strain VOS48; test: Grain protectant bioassay on treated wheat, O. surinamensis susceptible; assay type: in vivo; details: for Progeny reduction (%): vs untreated control
[8] = Tribolium castaneum, 336 h, 25 mg/kg, 2 weeks, mean ± SE, read-out: Adult mortality (%)
[9] = Tribolium castaneum, 336 h, 60 mg/kg, 2 weeks, mean ± SE, read-out: Adult mortality (%)
[10] = Cryptolestes ferrugineus, 336 h, 25 mg/kg, 2 weeks, mean ± SE, read-out: Adult mortality (%)
[11] = Cryptolestes ferrugineus, 336 h, 60 mg/kg, 2 weeks, mean ± SE, read-out: Adult mortality (%)

With CC(C)C(=O)C1C(=O)C(C)(C)C(=O)C(C)(C)C1=O [Flavesone, 1-isobutyroyl-3,3,5,5-tetramethylcyclohexane-2,4,6-trione] the LC50 ([1]; Myzus persicae, foliar, read-out: LC50 (mg a.i./L)) was 2730 µg/mL (≈ 10.8 mM), the “LC90 (mg a.i./L)” value [1] was 6,034 mg a.i./L and the “LC99 (mg a.i./L)” value [1] was 14,330 mg a.i./L. The LC50 ([2]; Resistant population, read-out: LC50 (mg a.i./L)) was 3150 µg/mL (≈ 12.5 mM), the LC50 ([2]; susceptible and resistant populations, read-out: LC50) was 2730 to 3150 µg/mL (≈ 10.8 to 12.5 mM) and the “LC90 (mg a.i./L)” value ([2]; Resistant population) was 7,929 mg a.i./L. For the same compound, the “LC99 (mg a.i./L)” value ([2]; Resistant population) was 21,708 mg a.i./L, the Live adult progeny ([3]; 25 mg/kg, mean ± SE) was 120.0 ± 16.1 and the Live adult progeny ([3]; 60 mg/kg, mean ± SE) was 65.0 ± 3.2. For the same compound, the “Progeny reduction (%)” value ([3]; 60 mg/kg) was 45.2%, the “Progeny reduction (%)” value ([3]; 60 mg/kg, listed as flavesone) was 45% and the mortality at 25 mg/kg [3, 8] was 0%. The mortality at 60 mg/kg [3, 9] was 0%, the Live adult progeny ([4]; 25 mg/kg, mean ± SE) was 265.3 ± 27.7 and the “Progeny reduction (%)” value ([4]; 25 mg/kg) was 17.4%. For the same compound, the Live adult progeny ([4]; 60 mg/kg, mean ± SE) was 204.3 ± 27.8, the “Progeny reduction (%)” value ([4]; 60 mg/kg) was 36.4% and the “Progeny reduction (%)” value ([4]; 60 mg/kg, listed as flavesone) was 36%. The mortality at 25 mg/kg [4, 8] was 0%, the mortality at 60 mg/kg [4, 9] was 0% and the Live adult progeny ([5]; 25 mg/kg, mean ± SE) was 72.0 ± 20.3. The “Progeny reduction (%)” value ([5]; 25 mg/kg) was 76.5%, the “Progeny reduction (%)” value ([5]; 25 mg/kg, listed as flavesone) was about 75% and the Live adult progeny ([5]; 60 mg/kg, mean ± SE) was 0.0 ± 0.0. The “Progeny reduction (%)” value ([5]; 60 mg/kg) was 100%, the mortality at 25 mg/kg [5, 10] was 27.5 ± 17.5% and the mortality at 60 mg/kg [5, 11] was 90%. For the same compound, the Live adult progeny ([6]; 25 mg/kg, mean ± SE) was 83.7 ± 6.5, the “Progeny reduction (%)” value ([6]; 25 mg/kg) was 75.7% and the “Progeny reduction (%)” value ([6]; 25 mg/kg, listed as flavesone) was about 75%. The Live adult progeny ([6]; 60 mg/kg, mean ± SE) was 0.0 ± 0.0, the “Progeny reduction (%)” value ([6]; 60 mg/kg) was 100% and the mortality at 25 mg/kg [6, 10] was 3.3 ± 1.3%. The mortality at 60 mg/kg [6, 11] was 62%, the “Adult mortality (%)” value ([7]; 25 mg/kg, 2 weeks, mean ± SE) was 22.7 ± 2.4% and the Live adult progeny ([7]; 25 mg/kg, mean ± SE) was 1.3 ± 0.7. The “Progeny reduction (%)” value ([7]; 25 mg/kg) was 99.6%, the “Adult mortality (%)” value ([7]; 60 mg/kg, 2 weeks, mean ± SE) was 91.3 ± 5.9% and the Live adult progeny ([7]; 60 mg/kg, mean ± SE) was 0.0 ± 0.0. For the same compound, the “Progeny reduction (%)” value ([7]; 60 mg/kg) was 100%, the mortality at 25 mg/kg ([7]; Oryzaephilus surinamensis, 336 h, 25 mg/kg, 2 weeks, mean ± SE, read-out: Adult mortality (%)) was 22% and the mortality at 60 mg/kg ([7]; Oryzaephilus surinamensis, 336 h, 60 mg/kg, 2 weeks, mean ± SE, read-out: Adult mortality (%)) was 91%.
